From patent US9725445B2, “Cycloalkyl nitrile pyrazolo pyridones as Janus kinase inhibitors” (Merck Sharp & Dohme Corp., priority 2013, dated 2017)
pIC50: −log10 of the molar value.

molecular target: JAK1 (Homo sapiens (Human), UniProt P23458); test: Jak biochemical HTRF assay, JAK1; conditions: HTRF biochemical assay, recombinant GST-tagged catalytic domain; read-out: JAK1 IC50
Description: Jak Biochemical HTRF Assay Protocol
The ability of compounds to inhibit the activity of JAK1, JAK2, JAK3, and Tyk2 was measured using a recombinant purified GST-tagged catalytic domain for each enzyme (Invitrogen JAK1 #M4290, JAK2 #M4290, JAK3 #M4290, Tyk2 #M4290) in an HTRF format biochemical assay. […] The basic assay protocol is as follows: First, 250 nL of diluted compounds in DMSO were dispensed into the wells of a dry 384-well Black plate (Greiner #781076) using a Labcyte Echo 555 acoustic dispenser. Subsequent reagent additions employed an Agilent Bravo. […] After equilibration, 2 μL of 10×ATP in 1× assay buffer was added to initiate the kinase reaction and the plates were shaken and then incubated at room temperature for 120 minutes. […] Plates were shaken and centrifuged and then incubated 60 minutes at room temperature and then read on a Perkin Elmer Envision (λex=337 nm, λem=665 and 615 nm, TRF delay time=20 μs). HTRF signal=10,000*665 nm reading/615 nm reading. After normalization to untreated controls, the percent inhibition of the HTRF signal at each compound concentration was calculated. The plot of percent inhibition versus the log of compound concentration was fit with a 4-parameter dose response equation to calculate IC50 values.
Final Reaction Conditions were:
Examples of the instant invention were evaluated in JAK1 and JAK2 in vitro binding assays.

JAK1, sequence (P23458 875-1153): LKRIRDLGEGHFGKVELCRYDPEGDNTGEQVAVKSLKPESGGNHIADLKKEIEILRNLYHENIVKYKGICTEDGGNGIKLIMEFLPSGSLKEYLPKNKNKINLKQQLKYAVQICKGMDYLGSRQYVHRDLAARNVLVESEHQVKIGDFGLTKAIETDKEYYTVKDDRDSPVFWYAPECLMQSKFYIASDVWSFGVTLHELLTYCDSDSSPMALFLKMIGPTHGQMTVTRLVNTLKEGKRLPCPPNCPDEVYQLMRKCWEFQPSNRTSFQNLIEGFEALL

Question: How did the pIC50 turn out when N#C[C@H]1CCC[C@@H]1n1nc(Nc2ccc(C3(C(F)(F)F)CCCCN3)cc2)c2c(=O)[nH]ccc21 (single isomer, unassigned) [Example 15-72, (1S,2S)-2-[4-oxo-3-({4-[(2R or 2S)-2-(trifluoromethyl)piperidin-2-yl]phenyl}amino)-4,5-dihydro-1H-pyrazolo[4,3-c]pyridin-1-yl]cyclopentanecarbonitrile] was run?
Answer: Its pIC50 is 10.11.

Question: With C[C@H](N[C@H]1CC[C@@H](n2nc(Nc3ccc(C(F)(F)F)cc3)c3c(=O)[nH]ccc32)[C@H](C#N)C1)C1CC1 [Example 5-13, (1R,2R,5S)-5-(((S)-1-cyclopropylethyl)amino)-2-(4-oxo-3-((4-(trifluoromethyl)phenyl)amino)-4,5-dihydro-1H-pyrazolo[4,3-c]pyridin-1-yl)cyclohexanecarbonitrile] as the molecule, how does the pIC50 read?
Answer: Its pIC50 is 7.01.

Question: How did the pIC50 turn out when N#C[C@H]1CCC[C@@H]1n1nc(Nc2ccc(S(N)(=O)=O)cc2)c2c(=O)[nH]ccc21 [Example 3-99, 4-({1-[(1S,2S)-2-cyanocyclopentyl]-4-oxo-4,5-dihydro-1H-pyrazolo[4,3-c]pyridin-3-yl}amino)benzenesulfonamide] was run?
Answer: The pIC50 was 10.05.

Question: COCC(C)(C)CN1Cc2cc(Nc3nn([C@H]4CCCCC[C@@H]4C#N)c4cc[nH]c(=O)c34)ccc2S1(=O)=O (single isomer, unassigned) [Example 15-49, (1S,2S or 1R,2R)-2-(3-{[2-(3-methoxy-2,2-dimethylpropyl)-1,1-dioxido-2,3-dihydro-1,2-benzisothiazol-5-yl]amino}-4-oxo-4,5-dihydro-1H-pyrazolo[4,3-c]pyridin-1-yl)cycloheptanecarbonitrile] was tested. Which pIC50 did it give?
Answer: Its pIC50 is 8.29.

Question: N#C[C@H]1CCCC[C@@H]1n1nc(Nc2ccc(-c3ccon3)cc2)c2c(=O)[nH]ccc21 [Example 15-4, (1S,2S)-2-{3-[(4-isoxazol-3-ylphenyl)amino]-4-oxo-4,5-dihydro-1H-pyrazolo[4,3-c]pyridin-1-yl}cyclohexanecarbonitrile] was tested. Which pIC50 did it give?
Answer: The pIC50 was 9.74.

Question: How did the pIC50 turn out when CC(C)(C)OC(=O)C1CCC(N2Cc3cc(Nc4nn([C@H]5CCCC[C@@H]5C#N)c5cc[nH]c(=O)c45)ccc3C2=O)CC1 (single isomer, unassigned) [Example 3-135, (cis or trans)tert-butyl 4-(5-((1-((1S,2S)-2-cyanocyclohexyl)-4-oxo-4,5-dihydro-1H-pyrazolo[4,3-c]pyridin-3-yl)amino)-1-oxoisoindolin-2-yl)cyclohexanecarboxylate] was run?
Answer: The pIC50 was 9.66.

Question: With CC1(C)C(O)c2cc(Nc3nn([C@H]4CCCC[C@@H]4C#N)c4cc[nH]c(=O)c34)ccc2S1(=O)=O (single isomer, unassigned) [Example 3-172, (1S,2S)-2-(3-{[(3S or 3R)-3-hydroxy-2,2-dimethyl-1,1-dioxido-2,3-dihydro-1-benzothiophen-5-yl]amino}-4-oxo-4,5-dihydro-1H-pyrazolo[4,3-c]pyridin-1-yl)cyclohexanecarbonitrile] as the molecule, how does the pIC50 read?
Answer: The pIC50 was 9.41.

Question: CC(C)(C)OC(=O)C1CCC(N2Cc3cc(Nc4nn([C@H]5CCCC[C@@H]5C#N)c5cc[nH]c(=O)c45)ccc3C2=O)CC1 (single isomer, unassigned) [Example 3-134, (cis or trans)tert-butyl 4-(5-((1-((1S,2S)-2-cyanocyclohexyl)-4-oxo-4,5-dihydro-1H-pyrazolo[4,3-c]pyridin-3-yl)amino)-1-oxoisoindolin-2-yl)cyclohexanecarboxylate] was tested. Which pIC50 did it give?
Answer: Its pIC50 is 9.80.

Question: COCC(C)(C)CN1Cc2cc(Nc3nn([C@@H]4CCCCC[C@H]4C#N)c4cc[nH]c(=O)c34)ccc2S1(=O)=O (single isomer, unassigned) [Example 15-46, (1R,2R or 1S,2S)-2-(3-{[2-(3-methoxy-2,2-dimethylpropyl)-1,1-dioxido-2,3-dihydro-1,2-benzisothiazol-5-yl]amino}-4-oxo-4,5-dihydro-1H-pyrazolo[4,3-c]pyridin-1-yl)cycloheptanecarbonitrile] was tested. Which pIC50 did it give?
Answer: The pIC50 was 10.12.

Question: With N#C[C@H]1C[C@@H](N2CC(O)C2)CC[C@@H]1n1nc(Nc2ccc(Cl)cc2)c2c(=O)[nH]ccc21 [Example 5-20, (1S,2S,5S)-2-(3-((4-chlorophenyl)amino)-4-oxo-4,5-dihydro-1H-pyrazolo[4,3-c]pyridin-1-yl)-5-(3-hydroxyazetidin-1-yl)cyclohexanecarbonitrile] as the molecule, how does the pIC50 read?
Answer: Its pIC50 is 9.85.

Question: How did the pIC50 turn out when CC(C)S(=O)(=O)c1ccc(Nc2nn([C@H]3CCCC[C@@H]3C#N)c3cc[nH]c(=O)c23)cc1 [Example 3-141, (1S,2S)-2-[3-({4-[(1-methylethyl)sulfonyl]phenyl}amino)-4-oxo-4,5-dihydro-1H-pyrazolo[4,3-c]pyridin-1-yl]cyclohexanecarbonitrile] was run?
Answer: The pIC50 was 9.82.

Question: With C[C@H](N[C@@H]1CC[C@@H](n2nc(Nc3ccc(C(F)(F)F)cc3)c3c(=O)[nH]ccc32)[C@H](C#N)C1)C1CC1 [Example 5-14, (1R,2R,5R)-5-(((S)-1-cyclopropylethyl)amino)-2-(4-oxo-3-((4-(trifluoromethyl)phenyl)amino)-4,5-dihydro-1H-pyrazolo[4,3-c]pyridin-1-yl)cyclohexanecarbonitrile] as the molecule, how does the pIC50 read?
Answer: Its pIC50 is 8.03.

Question: CC(C)(CCO)N1Cc2cc(Nc3nn([C@H]4CCCC[C@@H]4C#N)c4cc[nH]c(=O)c34)ccc2S1(=O)=O [Example 3-81, (1S,2S)-2-(3-{[2-(3-hydroxy-1,1-dimethylpropyl)-1,1-dioxido-2,3-dihydro-1,2-benzisothiazol-5-yl]amino}-4-oxo-4,5-dihydro-1H-pyrazolo[4,3-c]pyridin-1-yl)cyclohexanecarbonitrile] was tested. Which pIC50 did it give?
Answer: The pIC50 was 10.26.

Question: How did the pIC50 turn out when CC(C)(C)N1Cc2cc(Nc3nn([C@H]4CCCCC[C@@H]4C#N)c4cc[nH]c(=O)c34)ccc2S1(=O)=O (single isomer, unassigned) [Example 3-176, (1S,2S or 1R,2R)-2-{3-[(2-tert-butyl-1,1-dioxido-2,3-dihydro-1,2-benzisothiazol-5-yl)amino]-4-oxo-4,5-dihydro-1H-pyrazolo[4,3-c]pyridin-1-yl}cycloheptanecarbonitrile] was run?
Answer: The pIC50 was 8.72.

Question: CS(=O)(=O)c1ccc(Nc2nn([C@H]3CCC[C@@H]3C#N)c3cc[nH]c(=O)c23)cc1 [Example 3-94, (1S,2S)-2-(3-{[4-(methylsulfonyl)phenyl]amino}-4-oxo-4,5-dihydro-1H-pyrazolo[4,3-c]pyridin-1-yl)cyclopentanecarbonitrile] was tested. Which pIC50 did it give?
Answer: The pIC50 was 9.92.

Question: With CN(C)S(=O)(=O)c1ccc(Nc2nn([C@H]3CCCC[C@@H]3C#N)c3cc[nH]c(=O)c23)cc1CN [Example 8-1, 2-(Aminomethyl)-4-((1-((1S,2S)-2-cyanocyclohexyl)-4-oxo-4,5-dihydro-1H-pyrazolo[4,3-c]pyridin-3-yl)amino)-N,N-dimethylbenzenesulfonamide] as the molecule, how does the pIC50 read?
Answer: Its pIC50 is 9.11.

Question: How did the pIC50 turn out when N#C[C@H]1CCCC[C@@H]1n1nc(Nc2ccc([C@]3(O)CC[C@H](C(=O)O)CC3)cc2)c2c(=O)[nH]ccc21 [Example 17-2] was run?
Answer: The pIC50 was 9.28.

Question: CC1NCc2cc(Nc3nn([C@H]4CCCC[C@@H]4C#N)c4cc[nH]c(=O)c34)ccc21 (single isomer, unassigned) [Example 12-5, (1S,2S)-2-(3-{[(1R or 1S)-1-methyl-2,3-dihydro-1H-isoindol-5-yl]amino}-4-oxo-4,5-dihydro-1H-pyrazolo[4,3-c]pyridin-1-yl)cyclohexanecarbonitrile] was tested. Which pIC50 did it give?
Answer: Its pIC50 is 9.21.

Question: N#C[C@H]1CCCC[C@@H]1n1nc(Nc2ccc(C3(C(F)(F)F)CCCN3)cc2)c2c(=O)[nH]ccc21 (single isomer, unassigned) [Example 15-62, (1S,2S)-2-[4-oxo-3-({4-[(2S or 2R)-2-(trifluoromethyl)pyrrolidin-2-yl]phenyl}amino)-4,5-dihydro-1H-pyrazolo[4,3-c]pyridin-1-yl]cyclohexanecarbonitrile] was tested. Which pIC50 did it give?
Answer: Its pIC50 is 9.96.

Question: How did the pIC50 turn out when CC1c2cc(Nc3nn([C@H]4CCCC[C@@H]4C#N)c4cc[nH]c(=O)c34)ccc2S(=O)(=O)N1CC(F)(F)F (single isomer, unassigned) [Example 3-128, (1S,2S)-2-(3-(((R or S)-3-methyl-1,1-dioxido-2-(2,2,2-trifluoroethyl)-2,3-dihydrobenzo[d]isothiazol-5-yl)amino)-4-oxo-4,5-dihydro-1H-pyrazolo[4,3-c]pyridin-1-yl)cyclohexanecarbonitrile] was run?
Answer: Its pIC50 is 10.02.

Question: N#C[C@H]1C[C@H](N2CC(O)C2)CC[C@@H]1n1nc(Nc2ccc(Cl)cc2)c2c(=O)[nH]ccc21 [Example 5-19, (1S,2S,5R)-2-(3-((4-chlorophenyl)amino)-4-oxo-4,5-dihydro-1H-pyrazolo[4,3-c]pyridin-1-yl)-5-(3-hydroxyazetidin-1-yl)cyclohexanecarbonitrile] was tested. Which pIC50 did it give?
Answer: Its pIC50 is 9.96.

Question: With N#C[C@H]1CCCC[C@@H]1n1nc(Nc2ccc3c(c2)CC2(CC2)C3(O)C(F)(F)F)c2c(=O)[nH]ccc21 (single isomer, unassigned) [Example 3-123, (1S,2S)-2-(3-(((R or S)-1′-hydroxy-1′-(trifluoromethyl)-1′,3′-dihydrospiro[cyclopropane-1,2′-inden]-5′-yl)amino)-4-oxo-4,5-dihydro-1H-pyrazolo[4,3-c]pyridin-1-yl)cyclohexanecarbonitrile] as the molecule, how does the pIC50 read?
Answer: Its pIC50 is 9.74.
